Where a SMILES comes first, the peptide text is derived from it. Bridges are numbered along the chain shown (N, C = ends).
Columns and labels:
Assay type in all cases: binding
CD8α = experiment: phage spot ELISA on CD8α; settings: S3 Table sheet CD8α; for S/N: phage spot ELISA signal/noise; for ELISA: phage spot ELISA signal
From the text: (§1) To determine the performance of the libraries for ligand discovery we chose a panel of eight protein targets, which have no structural homology and a wide mass range (Fig 7C). We screened these eight targets with solution panning strategy and two additional plate panning for CD8α/β and CD28, thus ten panning campaigns in total. We consider clones showing spot phage ELISA signal > 0.3 and signal/noise ratio > 2 as positive hits. At least one binding hit was discovered for nine out of the ten panning campaigns, surpassing the success rate of the best DCP scaffolds reported previously. We also obtained the NGS data for these screening and the ranking of clones for their enrichment along the rounds of screening was analyzed and considered the top-ranking clones as potential hits. Based on their sequence diversity we selected 16 potential hits spanning five protein targets for peptide synthesis in their linear form. Seven of these are hits with positive phage ELISA signal and nine were selected based on NGS ranking without spot ELISA available. Subsequently, we conducted in vitro folding experiments on these peptides in various buffers. We observed a strong propensity for spontaneous folding regardless of the buffer condition. All HCP hits tested successfully folded into three-disulfide-containing product within two days in a universal buffer system (PBS, pH 7.4, 50% DMSO) without the need for a redox pair, as shown in Fig 8A. The binding of these folded peptides to their respective target proteins was confirmed using SPR (Table 4 and S1 Data) and binding kinetics are exemplified by the high-affinity peptide 5ji4-CRD7-2 (see Fig 8B). Among seven selected ELISA-positive hits, all of them were successfully synthesized and in vitro folded with three disulfide bonds and five were proven to be validated binders by SPR (Table 4). Nine peptides selected from the NGS ranking were synthesized and folded with the expected number of disulfide bonds and five of them bound to their target with affinities in the μM range as determined by SPR (Table 4). In general, binding affinities for these SPR-validated initial hits are weak, with Kd values in the micromolar range and fast on- and off-rates. There are two exceptions with binding affinities in the nanomolar range.
(§2) The 5ji4 libraries were constructed following the Kunkel mutagenesis method and the solution panning protocol was followed as previously described. After four to five rounds of binding selection, while eluted pool was subjected to NGS analysis, individual phage clones were also picked and analyzed with phage spot ELISA. Positive clones were subjected to SANGER sequencing.

HtrA1 = experiment: phage spot ELISA on HtrA1; settings: for ELISA s/n: Spot ELISA signal/noise; for ELISA s/n / ELISA signal: Fig 9A; for ELISA signal: Spot ELISA
From the text: To determine the performance of the libraries for ligand discovery we chose a panel of eight protein targets, which have no structural homology and a wide mass range (Fig 7C). We screened these eight targets with solution panning strategy and two additional plate panning for CD8α/β and CD28, thus ten panning campaigns in total. We consider clones showing spot phage ELISA signal > 0.3 and signal/noise ratio > 2 as positive hits. […] We also obtained the NGS data for these screening and the ranking of clones for their enrichment along the rounds of screening was analyzed and considered the top-ranking clones as potential hits. Based on their sequence diversity we selected 16 potential hits spanning five protein targets for peptide synthesis in their linear form. Seven of these are hits with positive phage ELISA signal and nine were selected based on NGS ranking without spot ELISA available. Subsequently, we conducted in vitro folding experiments on these peptides in various buffers.
as §2
Among these five hits, A7, which is the SANGER hit, was picked for affinity maturation. Following the same strategy, one soft- and one hard-randomization library was designed targeting the 5JI4 variable regions 1 and 2, respectively. Two libraries were each panned as previously described. Both phage spot ELISA coupled with SANGER sequencing and NGS analysis were applied after affinity maturation.

RSP02 = experiment: phage spot ELISA on RSP02; settings: for S/N: phage spot ELISA signal/noise; for S/N / ELISA: S3 Table sheet RSP02; for ELISA: phage spot ELISA signal
From the text: as §1, §2

For “PCECDVNGETYTVSSSEECERCQDWLFYLCRVHCG [CD8α clone 4, phage clone, 5JI4 library, CD8α panning]”, the S/N (CD8α) was 35.6 and the ELISA (CD8α) was 3.525.

With “PCACDVNGETYTVSSSEECERLCTWWYFVVCRVHCG [CD8α clone 5, phage clone, 5JI4 library, CD8α panning]” the S/N (CD8α) was 3.0 and the ELISA (CD8α) was 0.282.

In the case of “PCDCDVNGETYTVSSSEECEPLCLNWLSSLCRVHCG [CD8α clone 3, phage clone, 5JI4 library, CD8α panning]”, the S/N (CD8α) is reported as 37.9 and the ELISA (CD8α) is reported as 3.371.

For CC[C@H](C)[C@@H]1NC(=O)[C@H](CO)NC(=O)[C@@H]2CSSC[C@H](NC(=O)[C@H](CCC(=O)O)NC(=O)[C@H](C)NC(=O)[C@H](CO)NC(=O)[C@H](CO)NC(=O)[C@H]([C@@H](C)O)NC(=O)[C@H](CC(C)C)NC(=O)[C@H](Cc3ccccc3)NC(=O)[C@H](Cc3c[nH]cn3)NC(=O)[C@H](Cc3c[nH]c4ccccc34)NC(=O)CNC(=O)[C@H](CCCNC(=N)N)NC(=O)[C@H](CC(C)C)NC1=O)C(=O)N[C@@H](CCC(=O)O)C(=O)N[C@@H](CCCNC(=N)N)C(=O)N[C@@H](CC(C)C)C(=O)N[C@H]1CSSC[C@H](NC(=O)[C@H]([C@@H](C)O)NC(=O)[C@H](CCCNC(=N)N)NC(=O)[C@H](CC(C)C)NC(=O)CNC(=O)[C@H](CC(C)C)NC(=O)[C@H](CCCNC(=N)N)NC(=O)[C@H](CC(=O)O)NC1=O)C(=O)N[C@@H](CCCNC(=N)N)C(=O)N[C@@H]([C@@H](C)CC)C(=O)N[C@@H](Cc1c[nH]cn1)C(=O)N[C@H](C(=O)NCC(=O)O)CSSC[C@H](NC(=O)[C@@H]1CCCN1)C(=O)N[C@@H](CCC(=O)O)C(=O)N2 [5ji4_A7.D7B2] (H-PCECSILRGWHFLTSSAECERLCDRLGLRTCRIHCG-OH; disulfide 2-35, 4-19, 23-31), the ELISA s/n (HtrA1) was 5.3 and the ELISA signal (HtrA1) was 3.45.

“PCECDVNGETYTVSSSEECEPLCWMYNEHFCRVHCG [RSP02 clone 6, phage clone, 5JI4 library, RSP02 panning]” was tested, and the S/N (RSP02) was 8.917 and the ELISA (RSP02) was 0.856.

“PCECVRLSTGRYVKSSEECERLCRKLGVTNCRVHCG [RSP02 clone 5, phage clone, 5JI4 library, RSP02 panning]” showed a S/N (RSP02) of 1.706 and an ELISA (RSP02) of 0.216.

Work on “PAMLLQRNRPYGLLPEECERLCRKLGVTTACHCG [CD8α clone 1, phage clone, 5JI4 library, CD8α panning]” yielded a S/N (CD8α) of 39.9 and an ELISA (CD8α) of 4.75.

For “PCECEQPYRDDPDKSSEECERLCRKLGVTNCRVHCG [RSP02 clone 4, phage clone, 5JI4 library, RSP02 panning]”, the S/N (RSP02) was 1.788 and the ELISA (RSP02) was 0.177.

Work on “PCECQPMSNWFDMISSEECERLCRKLGVTNCRVHCG [RSP02 clone 3, phage clone, 5JI4 library, RSP02 panning]” yielded a S/N (RSP02) of 0.8496 and an ELISA (RSP02) of 0.192.

CSCC[C@@H]1NC(=O)[C@H](Cc2c[nH]c3ccccc23)NC(=O)[C@@H]2CSSC[C@H](NC(=O)[C@H](Cc3ccccc3)NC(=O)[C@H](Cc3c[nH]cn3)NC(=O)[C@H](CCC(=O)O)NC(=O)[C@H](CC(N)=O)NC(=O)[C@H](Cc3ccc(O)cc3)NC1=O)C(=O)N[C@@H](CCCNC(=N)N)C(=O)N[C@@H](C(C)C)C(=O)N[C@@H](Cc1c[nH]cn1)C(=O)N[C@H](C(=O)NCC(N)=O)CSSC[C@H](NC(=O)[C@@H]1CCCN1C(C)=O)C(=O)N[C@@H](CCC(=O)O)C(=O)N[C@H]1CSSC[C@H](NC(=O)[C@H](CCC(=O)O)NC(=O)[C@H](CCC(=O)O)NC(=O)[C@H](CO)NC(=O)[C@H](CO)NC(=O)[C@H](CO)NC(=O)[C@H](C(C)C)NC(=O)[C@H]([C@@H](C)O)NC(=O)[C@H](Cc3ccc(O)cc3)NC(=O)[C@H]([C@@H](C)O)NC(=O)[C@H](CCC(=O)O)NC(=O)CNC(=O)[C@H](CC(N)=O)NC(=O)[C@H](C(C)C)NC(=O)[C@H](CC(=O)O)NC1=O)C(=O)N[C@@H](CCC(=O)O)C(=O)N1CCC[C@H]1C(=O)N[C@@H](CC(C)C)C(=O)N2 [5ji4-RSP-1] (Ac-PCECDVNGETYTVSSSEECEPLCWMYNEHFCRVHCG-NH2; disulfide 2-35, 4-19, 23-31; N-terminus and C-terminus assumed) showed an ELISA signal (RSP02; phage spot ELISA of the clone, positive hit: signal > 0.3 and signal/noise > 2) of 0.58 and an ELISA s/n (RSP02; phage spot ELISA signal/noise ratio) of 5.22.

“PCECDVNGETYTVSSSEECEQDSDCLAGWVCRVHCG [CD8α clone 7, phage clone, 5JI4 library, CD8α panning]” was tested, and the S/N (CD8α) was 34.2 and the ELISA (CD8α) was 3.252.

CSCC[C@@H]1NC(=O)[C@H](CO)NC(=O)[C@@H]2CSSC[C@H](NC(=O)[C@H](CCC(=O)O)NC(=O)[C@H](C)NC(=O)[C@H](CO)NC(=O)[C@H](CO)NC(=O)[C@H]([C@@H](C)O)NC(=O)[C@H](CCSC)NC(=O)[C@H](Cc3ccccc3)NC(=O)[C@H]([C@@H](C)O)NC(=O)[C@H](Cc3c[nH]c4ccccc34)NC(=O)CNC(=O)[C@@H]3CCCN3C(=O)[C@H](CC(C)C)NC1=O)C(=O)N[C@@H](CCC(=O)O)C(=O)N[C@@H](CCCNC(=N)N)C(=O)N[C@@H](CC(C)C)C(=O)N[C@H]1CSSC[C@H](NC(=O)[C@H]([C@@H](C)O)NC(=O)[C@H](CCCNC(=N)N)NC(=O)[C@H](CC(C)C)NC(=O)CNC(=O)[C@H](CC(C)C)NC(=O)[C@H](CCCNC(=N)N)NC(=O)[C@H](CC(=O)O)NC1=O)C(=O)N[C@@H](CCCNC(=N)N)C(=O)N[C@@H](C(C)C)C(=O)N[C@@H](Cc1c[nH]cn1)C(=O)N[C@H](C(=O)NCC(=O)O)CSSC[C@H](NC(=O)[C@@H]1CCCN1)C(=O)N[C@@H](CCC(=O)O)C(=O)N2 [5ji4_A7.B7B2] (H-PCECSMLPGWTFMTSSAECERLCDRLGLRTCRVHCG-OH; disulfide 2-35, 4-19, 23-31) showed an ELISA s/n (HtrA1) of 7.2 and an ELISA signal (HtrA1) of 3.54.

Work on “PCECTILRGWHFLTSSAECERLCRKLGVTNCRVHCG [HtrA1 clone 1, phage clone, 5JI4 library, HtrA1 panning; sole HtrA1 hit, probably 5ji4-A7]” yielded a S/N (HtrA1; phage spot ELISA signal/noise, S3 Table sheet HtrA1) of 8.86 and an ELISA (HtrA1; phage spot ELISA signal, S3 Table sheet HtrA1) of 1.0205.

“PCECDLNGETYTVSSSEECERLCSWYIQYVCRVHCG [CD8α clone 6, phage clone, 5JI4 library, CD8α panning]” gave a S/N (CD8α) of 2.2 and an ELISA (CD8α) of 0.194.

With “PCECDVNGETYTVSSSEECGRLCQYWFIMLCRVHCG [CD8α clone 2, phage clone, 5JI4 library, CD8α panning]” the S/N (CD8α) was 38.5 and the ELISA (CD8α) was 3.391.

CC[C@H](C)[C@@H]1NC(=O)[C@H]([C@@H](C)O)NC(=O)[C@@H]2CSSC[C@H](NC(=O)[C@H](CCC(=O)O)NC(=O)[C@H](C)NC(=O)[C@H](CO)NC(=O)[C@H](CO)NC(=O)[C@H]([C@@H](C)O)NC(=O)[C@H](CC(C)C)NC(=O)[C@H](Cc3ccccc3)NC(=O)[C@H](Cc3c[nH]cn3)NC(=O)[C@H](Cc3c[nH]c4ccccc34)NC(=O)CNC(=O)[C@@H]3CCCN3C(=O)[C@H](CC(C)C)NC1=O)C(=O)N[C@@H](C)C(=O)N[C@@H](CCCNC(=N)N)C(=O)N[C@@H](CC(C)C)C(=O)N[C@H]1CSSC[C@H](NC(=O)[C@H]([C@@H](C)O)NC(=O)[C@H](CCCNC(=N)N)NC(=O)[C@H](CC(C)C)NC(=O)CNC(=O)[C@H](CC(C)C)NC(=O)[C@H](CCCNC(=N)N)NC(=O)[C@H](CC(=O)O)NC1=O)C(=O)N[C@@H](CCCNC(=N)N)C(=O)N[C@@H](C(C)C)C(=O)N[C@@H](Cc1c[nH]cn1)C(=O)N[C@H](C(=O)NCC(=O)O)CSSC[C@H](NC(=O)[C@@H]1CCCN1)C(=O)N[C@@H](CCC(=O)O)C(=O)N2 [5ji4_A7.B9B2] (H-PCECTILPGWHFLTSSAECARLCDRLGLRTCRVHCG-OH; disulfide 2-35, 4-19, 23-31) was tested, and the ELISA s/n (HtrA1) was 7.0 and the ELISA signal (HtrA1) was 3.67.

Reference: paper PMC11611271, “Rapid prediction of key residues for foldability by machine learning model enables the design of highly functional libraries with hyperstable constrained peptide scaffolds” (PLOS Computational Biology, 2024)
